Measurements as given in patent publication US9993490B2, “Phosphonic acid compounds and screening method” (The Board of Trustees of The University of Illinois, priority 2014, dated 2018).

Experiments:
[1] = system: Mycobacterium smegmatis NRRL B-14616; assay: Growth inhibition in liquid culture; assay type: cell-based; settings: 100 ug ml^-1, R2A, 37° C., 24 hours
Method: (§1) Antibiotic activity for purified PnPs was examined by growth inhibition in liquid cultures. Salmonella typhimurium LT2, Escherichia coli WM6242 (±1 mM IPTG), and Pseudomonas aeruginosa K were grown in M9-glucose. Bacillus subtilis subsp. spizizenii ATCC 6633, Staphylococcus aureus ATCC 25923, and Mycobacterium smegmatis NRRL B-14616 (37° C.) were cultivated in R2A. 96-Well plates containing 150 μL of media was inoculated with 1.5 uL of the appropriate cultures (OD600=0.4-0.5). Kanamycin, aminomethylphosphonate, 1-hydroxy-2-aminoethylphosphonate, (R)-2,3-dihydroxypropylphosphonate, argolaphos A, and argolaphos B were added to a final concentration of 100 ug ml^−1. After growth for 16 hours (24 for M. smegmatis) in a shaking incubator (200 rpm), cell densities recorded on a Tecan microplate reader.

[2] = system: Escherichia coli WM6242; assay: Growth inhibition in liquid culture; assay type: cell-based; settings: upon induction of phosphonate uptake machinery (1 mM IPTG); 100 ug ml^-1
Method: as §1

[3] = Stability in the course of purification; assay type: physicochemical; settings: fraction 2 of S. durhamensis NRRL B-3309 extract
Method: The liquid was concentrated to dryness and dissolved in 200 mL of 0.1% aqueous acetic acid, which was then applied to a 100 mL Fe(III) IMAC gravity column. Before sample loading the column was equilibrated with 0.1% acetic acid. After sample loading, the column was washed successively with 5 volumes of 0.1% acetic acid and 0.1% acetic acid in 20% acetonitrile (ACN). The materials were eluted from the column with 100 mM aqueous NH4HCO3. The eluate (200 mL) from the iron IMAC column was dried with a rotary evaporator as fraction 1. The unabsorbed sample was also dried as fraction 2.

## O=P(O)(O)C[C@H](O)CO [Compound 4, (R)-2,3-dihydroxypropylphosphonic acid]
[1]
  growth inhibition of Mycobacterium smegmatis: slightly inhibited growth

## NCC(O)OP(=O)(O)O (stereo not drawn) [Compound 11, 1-hydroxy-2-aminoethylphosphoric acid]
[2]
  antibiotic activity against E. coli: effective antibiotic

## cyclic 2,3-dihydroxypropanoic acid [Compound 6]
[3]
  stability during purification: unstable and easily decomposed
